Test results published in patent US9034886B2, “4-aminoquinazoline derivatives and uses thereof” (Shanghai Institute of Pharmaceutical Industry, priority 2011, dated 2015).

Experiments:
[1] = Maximum tolerance dose through intragastrical administration; format: in vivo; conditions: mice, administrated intragastrically
Protocol: Forty ICR mice, half female and half male, weighing […] were divided into four groups, 10 mice in each group. After the mice were fasted for 6 h, the compound to be tested was administrated intragastrically to each group at a volume of 0.3 ml/10 g by using a sterile plastic syringe. General physical signs and the deaths of the animals were record at 1, 2 and 4 h after the administration. The animals were then observed continuously for 14 days and their weights, physical signs and deaths were observed and recorded every day. Dead animals were dissected to see if there was any visible pathological change in the animal's viscera and pathological examination was performed on suspicious tissues and organs. A part of the experimental results is as follows.

[2] = system: PC-3 human prostate cancer; test: In vitro anti-proliferative effect, CCK-8 method, PC-3; format: cell-based; conditions: Homo sapiens, PC-3 cell strain, CCK-8 method; for inhibition at 10 µM: compound at 10 μM; for inhibition at 100 µM: compound at 100 μM
Method in brief: (§1)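 Two-point screen, 100 μM and 10 μM; CCK-8 colorimetric read-out gives % growth inhibition.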

[3] = system: MDA-MB-435s human breast cancer cells; test: In vitro anti-proliferative effect, CCK-8 method, MDA-MB-435s; format: cell-based; conditions: Homo sapiens, MDA-MB-435S
Method in brief: as §1

[4] = system: Jurkat E6-1 human T-cell lymphoma; test: In vitro anti-proliferative effect, CCK-8 method, Jurkat E6-1; format: cell-based; conditions: Homo sapiens, Jurkat E6.1
Method in brief: as §1

[5] = system: PANC-1 human pancreatic cancer cells; test: In vitro anti-proliferative effect, CCK-8 method, PANC-1; format: cell-based; conditions: Homo sapiens, PANC-1
Method in brief: as §1

[6] = system: Hep3B2.1-7 human liver cancer cells; test: In vitro anti-proliferative effect, CCK-8 method, Hep3B; format: cell-based; conditions: Homo sapiens, Hep3B cell strain, CCK-8 method; for inhibition at 10 µM: compound at 10 μM; for inhibition at 100 µM: compound at 100 μM
Method in brief: as §1

[7] = system: HDACs; test: In vitro inhibition of HDACs (HDAC Inhibitor Drug Screening Kit, Biovision K340-100); format: biochemical
Protocol: The in vitro inhibitory activities of the compounds towards HDACs were tested according to the instructions in the HDAC Inhibitor Drug Screening Kit (Biovision/Catalog #K340-100).
(1) The compounds to be tested were each individually prepared as 2 mM, 200 μM and 40 μM solutions and their inhibitory activities at these concentrations were tested.

[8] = system: Colo320 human colorectal cancer cell lines; test: In vitro anti-proliferative effect, CCK-8 method, Colo320; format: cell-based; conditions: Homo sapiens, COLO 320, Colo320 cell strain, CCK-8 method; for inhibition at 10 µM: compound at 10 μM; for inhibition at 100 µM: compound at 100 μM
Method in brief: as §1

[9] = system: K562 human chronic myelogenous leukemia cells; test: In vitro anti-proliferative effect, CCK-8 method, K562; format: cell-based; conditions: Homo sapiens, K562
Method in brief: (§2)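 K562 and Hut78 cells exposed to compounds at 100 μM and 10 μM. Percent inhibition of proliferation determined by CCK-8 read-out.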

[10] = system: Hut78 T lymphocytic leukemia cells; test: In vitro anti-proliferative effect, CCK-8 method, Hut78; format: cell-based; conditions: Homo sapiens, HuT78, read-out: Hut-78 (inhibition %)
Method in brief: as §2

[11] = molecular target: HDAC1 (Homo sapiens (Human), UniProt Q13547); test: In vitro inhibition of subtype HDAC1 (HDAC1 Inhibitor Drug Screening Kit, Biovision); format: biochemical; conditions: for inhibition at 1 µM / inhibition at 10 µM: read-out: % Inhibition towards HDAC1; for inhibitory activity against HDAC1 compared with MS-275: both concentrations 10 μM and 1 μM
Protocol: The in vitro inhibitory activities of the compounds towards the subtype HDAC1 were tested according to the instructions in the HDAC1 Inhibitor Drug Screening Kit (Biovision).
(1) The compounds to be tested were each individually prepared as 10 μM and 1 μM solutions and their inhibitory activities at these concentrations were tested.
Each dilution sample was placed in two wells and the enzyme inhibition IC50 of the compound was tested.

[12] = system: A549 human lung cancer cells; test: In vitro anti-proliferative effect, CCK-8 method, A549; format: cell-based; conditions: Homo sapiens, A549
Method in brief: as §1

Sequence of HDAC1 (Q13547 whole entry): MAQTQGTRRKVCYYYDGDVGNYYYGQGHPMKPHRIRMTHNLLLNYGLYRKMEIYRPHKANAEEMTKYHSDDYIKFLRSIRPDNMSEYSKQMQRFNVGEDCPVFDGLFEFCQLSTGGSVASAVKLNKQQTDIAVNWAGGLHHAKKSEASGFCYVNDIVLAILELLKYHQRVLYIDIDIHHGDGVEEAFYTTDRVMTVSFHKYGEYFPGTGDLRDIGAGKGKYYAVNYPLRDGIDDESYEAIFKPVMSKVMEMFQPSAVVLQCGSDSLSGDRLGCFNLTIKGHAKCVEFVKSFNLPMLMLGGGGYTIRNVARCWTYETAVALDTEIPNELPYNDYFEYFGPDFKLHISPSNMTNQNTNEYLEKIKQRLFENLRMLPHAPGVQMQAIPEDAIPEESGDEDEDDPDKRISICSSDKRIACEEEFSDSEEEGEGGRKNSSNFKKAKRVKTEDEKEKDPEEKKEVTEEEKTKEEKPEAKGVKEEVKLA

Structure (SMILES): COC(=O)Cc1ccc2ncnc(Nc3ccc(C(=O)Nc4ccccc4N)cc3)c2c1 [Compound V-22, N-(2-aminophenyl)-4-(6-methoxycarbonylmethylquinazoline-4-amino)benzamide]
- maximum tolerance dose [1]: over 2000 mg/kg
- inhibition at 10 µM [2]: 44.6%
- inhibition at 100 µM [2]: 69%
- inhibition at 10 µM [3]: 18%
- inhibition at 100 µM [3]: 81.4%
- inhibition at 10 µM [4]: 83.1%
- inhibition at 100 µM [4]: 88.2%
- inhibition at 10 µM [5]: 12.3%
- inhibition at 100 µM [5]: 39.4%
- inhibition at 10 µM [6]: 38.3%
- inhibition at 100 µM [6]: 69.2%
- Inhibition percentage (%) towards HDACs ([7]; 40 μM): 19.9%
- Inhibition percentage (%) towards HDACs ([7]; 200 μM): 47.5%
- Inhibition percentage (%) towards HDACs ([7]; 2 mM): 84.2%
- inhibition at 10 µM [8]: 5.4%
- inhibition at 100 µM [8]: 40.8%
- inhibition at 10 µM [9]: 60.9%
- inhibition at 100 µM [9]: 83.4%
- inhibition at 10 µM [10]: 42.3%
- inhibition at 100 µM [10]: 91.8%
- inhibition at 1 µM [11]: 23.1%
- inhibition at 10 µM [11]: 63%
- inhibition at 10 µM [12]: 21.8%
- inhibition at 100 µM [12]: 69.9%

Structure (SMILES): CS(=O)(=O)CCNCc1ccc(-c2ccc3ncnc(Nc4ccc(C(=O)Nc5cc(F)ccc5N)cc4)c3c2)o1 [Compound V-20, N-(2-amino-5-fluorophenyl)-4-[6-(5-((2-(methylsulfonyl)ethylamino)methyl)furyl)quinazoline-4-amino]benzamide]
- maximum tolerance dose [1]: over 5000 mg/kg
- inhibition at 10 µM [2]: 48.1%
- inhibition at 100 µM [2]: 75.5%
- inhibition at 10 µM [3]: 17%
- inhibition at 100 µM [3]: 57.8%
- inhibition at 10 µM [4]: 84.8%
- inhibition at 100 µM [4]: 89.4%
- inhibition at 10 µM [5]: -1.7%
- inhibition at 100 µM [5]: 52%
- inhibition at 10 µM [6]: 23.5%
- inhibition at 100 µM [6]: 60%
- IC50 [7]: 1220 nM
- Inhibition percentage (%) towards HDACs ([7]; 40 μM): 28.2%
- Inhibition percentage (%) towards HDACs ([7]; 200 μM): 56.9%
- Inhibition percentage (%) towards HDACs ([7]; 2 mM): 67.5%
- inhibition at 10 µM [8]: 6.5%
- inhibition at 100 µM [8]: 58.8%
- inhibition at 10 µM [9]: 64.3%
- inhibition at 100 µM [9]: 92.9%
- inhibition at 10 µM [10]: 44.4%
- inhibition at 100 µM [10]: 85.7%
- inhibition at 1 µM [11]: 53.5%
- inhibition at 10 µM [11]: 77.4%
- inhibitory activity against HDAC1 compared with MS-275 [11]: superior to that of MS-275
- inhibition at 10 µM [12]: 0%
- inhibition at 100 µM [12]: 41.3%

Structure (SMILES): COc1cc2ncnc(Nc3ccc(C(=O)Nc4cc(F)ccc4N)cc3)c2cc1OCCCN1CCOCC1 [Compound V-18, N-(2-amino-5-fluorophenyl)-4-[7-methoxy-6-(3-morpholinylpropoxy)quinazoline-4-amino]benzamide]
- maximum tolerance dose [1]: over 2000 mg/kg
- inhibition at 10 µM [2]: 45.2%
- inhibition at 100 µM [2]: 72.2%
- inhibition at 10 µM [3]: 22.7%
- inhibition at 100 µM [3]: 81.4%
- inhibition at 10 µM [4]: 76.6%
- inhibition at 100 µM [4]: 95.7%
- inhibition at 10 µM [5]: 0.9%
- inhibition at 100 µM [5]: 23.9%
- inhibition at 10 µM [6]: 13.8%
- inhibition at 100 µM [6]: 75.1%
- IC50 [7]: 1020 nM
- Inhibition percentage (%) towards HDACs ([7]; 40 μM): 30.4%
- Inhibition percentage (%) towards HDACs ([7]; 200 μM): 56.8%
- Inhibition percentage (%) towards HDACs ([7]; 2 mM): 66.0%
- inhibition at 10 µM [8]: 7.7%
- inhibition at 100 µM [8]: 56.3%
- inhibition at 10 µM [9]: 58.5%
- inhibition at 100 µM [9]: 87.5%
- inhibition at 10 µM [10]: 39.9%
- inhibition at 100 µM [10]: 82.3%
- IC50 [11]: 330 nM
- inhibition at 1 µM [11]: 59.8%
- inhibition at 10 µM [11]: 80.8%
- inhibitory activity against HDAC1 compared with MS-275 [11]: superior to that of MS-275
- inhibition at 10 µM [12]: 9.5%
- inhibition at 100 µM [12]: 79.1%
